Experimental data: patent US12559454B2, “Benzenesulfonamide derivatives and uses thereof” (2692372 Ontario, Inc., priority 2019, dated 2026)
pIC50, pKi: −log10 of the molar value. Values joined by “and” are separate entries in the source; they are usually repeats but may differ in a detail not shown here. Identical values can stand only once. Like-named read-outs stand apart in the source and are kept apart here.

Key:
[1] = Intrinsic clearance in mouse hepatocyte; type: in vitro ADME; conditions: hepatocytes
Method: A stock of 100 μM test compound was prepared by diluting the 10 mM test compound in DMSO with a solution of 50% acetonitrile and 50% water. In a 96-well non-coated plate, 198 μL of hepatocytes was pipetted, and the plate was placed in the incubator on an orbital shaker to allow the hepatocytes to warm for 10 minutes. To this solution was added 2 μL of the 100 μM test compound to start the reaction, and the plate was placed on an orbital shaker. […] The reaction solution was then vortexed for 10 minutes and centrifuged at 4,000 rpm for 30 minutes at 4° C. 400 μL of the supernatant was transferred to one new 96-well plate. Centrifuged at 4,000 rpm for 30 minutes at 4° C. Transfer 100 μL of the supernatant to a new 96-well plate ensuring the pellet was not disturbed. Add 100 μL of ultrapure water to all samples for analysis by LC-MS/MS. Bioanalytical method: Column—Phenomenex Synergi 4μ Hydro-PR 80A (2.0×30 mm). Mobile phase—0.1% formic acid in water (solvent A) and 0.1% formic acid in acetonitrile (solvent B). Column temperature—room temperature. Injection volume—10 μL. MS analysis—API 4000 instrument from AB Inc (Canada) with an ESI interface.

[2] = Parallel artificial membrane permeability assay (PAMPA), Example D4; conditions: for recovery at 16 h, 10 μM: pH 7.4
Method: (§2) 1) The stock solutions of positive controls were prepared in DMSO at the concentration of 10 mM. Testosterone and methotrexate were used as control compounds in this assay. 2) Prepare a stock solution of compounds in DMSO at the concentration of 10 mM, and further dilute with PBS (pH 7.4). The final concentration of the test compound is 10 μM.
(§3) Assay Procedures. […] 2)Carefully pipette 5 μL of the lecithin/dodecane mixture into each acceptor plate well (top compartment), avoiding pipette tip contact with the membrane. 3) Immediately after the application of the artificial membrane (within 10 minutes), add 300 μL of PBS (pH 7.4) solution to each well of the acceptor plate. Add 300 μL of drug-containing solutions to each well of the donor plate (bottom compartment) in triplicate. 4) Slowly and carefully place the acceptor plate into the donor plate, making sure the underside of the membrane is in contact with the drug-containing solutions in all wells. 5) Replace the plate lid and incubate at 25° C., 60 rpm for 16 hours. 6) After incubation, aliquots of 50 μL from each well of acceptor and donor plate are transferred into a 96-well plate. Add 200 μL of methanol (containing IS: 100 nM Alprazolam, 200 nM Labetalol and 2 μM Ketoprofen) into each well. 7) Cover with plate lid. Vortex at 750 rpm for 100 seconds. Samples were centrifuged at 3,220 g for 20 minutes. Determine the compound concentrations by LC/MS/MS.

[3] = PAMPA, 16 h, 10 μM, pH 7.4
Method: as §2, §3

[4] = tested on: tubulin; experiment: Tubulin polymerization assay; type: biochemical; conditions: for % Inhibition: Vmax normalized to tubulin only control; for % D.O.P.: degree of polymerization relative to tubulin control
How it was run: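 Purified tubulin (3 mg/mL in the polymerization mix) in 80 mM PIPES pH 6.9, 2 mM MgCl2, 0.5 mM EGTA, 1 mM GTP, 10.2% glycerol was added to inhibitor at 37 °C. A340 read every 15 s for 30 min; maximal baseline-subtracted change relative to tubulin-only control gave % degree of polymerization.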

[5] = Plasma concentration in Balb/C nude mice
Method: IP administration at 40 mg/kg
Bioanalytical assay: Mobile phase: Solvent A=Water (0.1% Formic acid, 5% Acetonitrile), Solvent B=Acetonitrile (0.1% Formic acid, 5% Water), Column: Agilent ZORBAX XDB-Phenyl 5 μm (50×2.10 mm), MS: AB API 5500 LC/MS/MS instrument, HPLC: Shimadzu (DGU-20A5R)
Mouse species: Balb/C nude mice

[6] = tested on: MOLM-13 cells; experiment: CellTiter-Blue cell viability, MOLM-13; type: cell-based; conditions: Homo sapiens, 72 hrs exposure
How it was run: (§1)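 Cells plated at 1×10^4 per well, compound (0.097656-50 μM) added after 24 hrs and exposed 72 hrs at 37° C, 5% CO2. Viability by CellTiter-Blue, 1-4 h incubation, fluorescence at 560/590 nm.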

[7] = Reactivity profiling with glutathione, HPLC method; type: physicochemical; conditions: IMDM buffer with 10% FBS and 5 mM GSH, 25 μM compound
Method: The rate of compound degradation is determined by the integrated area of the analytical peak corresponding to the intact compound (t=0) after each sampling time. The elution time was 13 minutes with the flow rate of 1.2 ml/min. The mobile phase was consisted of phase A and B. Mobile phase A was analytical grade acetonitrile (+0.1% formic acid) and mobile phase B was Milli-Q water (+0.1% formic acid). Each compound was tested in duplicate. The data was processed and analyzed using GraphPad.

[8] = tested on: MV4-11 cells; experiment: CellTiter-Blue cell viability, MV-4-11; type: cell-based; conditions: Homo sapiens, 72 hrs exposure
How it was run: as §1

[9] = tested on: K562 cells; experiment: CellTiter-Blue cell viability, K562; type: cell-based; conditions: Homo sapiens, 72 hrs exposure
How it was run: as §1

[10] = Parallel artificial membrane permeability assay (PAMPA), Example C4; type: in vitro ADME; conditions: PBS pH 7.4, 10 μM, 16 hours
Method: Assay Procedures. […] 7) Cover with plate lid. Vortex at 750 rpm for 100 seconds. […] Determine the compound concentrations by LC/MS/MS.

[11] = tested on: normal pooled human fibroblasts; experiment: Viability of normal pooled human fibroblasts (Example G1); conditions: Fibroblast, read-out: Human Fibroblast (IC50, μM)
[12] = target: T1, BTK (Homo sapiens, UniProt Q06187); experiment: BTK washout experiment; type: biochemical; conditions: 3-h incubation, 40 nM BTK, 296 nM compound, 400-fold dilution
Method: After a 3-h incubation of 40 nM BTK in the presence of 296 nM of compound I-A1, a 400-fold dilution was performed to remove excess inhibitor.
After a 6-h incubation of 50 nM BTK in the presence of 280 nM of compound 3A-6, a 400-fold dilution was performed to remove excess inhibitor.
By way of contrast, a “washout” experiment performed with ARQ-531 gives a very different result, because this compound lacks a warhead and is known to inhibit BTK reversibly. After a 6-h incubation of 50 nM BTK in the presence of 177 nM of ARQ-531, a 400-fold dilution was performed to remove excess inhibitor. […] This indicates to one of ordinary skill in the art that the enzyme was not inhibited irreversibly during the incubation with ARQ-531.

[13] = tested on: BTK (His-tagged protein); experiment: Covalent modification of BTK by mass spectrometry (intact protein); type: binding; conditions: 10 μM BTK, 50 μM compound, 2 hours, 30° C.
Method: After incubation of 10 μM BTK in the presence of 50 μM of compound I-A1 for 2 hours at 30° C., the mass of the modified protein was determined by mass spectrometry. […] After incubation with inhibitor I-A1, the intensity of this had decreased by an order of magnitude, and the most intense peak is consistent with the protein whose mass was increased by 595 Da, corresponding closely to the expected mass of the inhibitor I-A1 (less one fluoride from inhibitor, and one proton from protein, 596 Da).

[14] = tested on: RL human non-Hodgkin's lymphoma B cell line; experiment: Cell viability in RL cells (Table 6); type: cell-based
[15] = tested on: RL human non-Hodgkin's lymphoma B cell line; experiment: In vitro efficacy in RL cells (Example G1); conditions: read-out: RL (IC50, μM)
[16] = tested on: normal primary human fibroblast (NHF) cell lines; experiment: Toxicity study, CellTiter-Blue viability in normal primary human fibroblasts (NHF); type: cell-based; conditions: NHF cells, 72 hrs exposure
Method: Anti-cancer efficacy of exemplary compounds of this application was assessed in vitro in different cancer cell lines. Cell viability was examined following treatment at various concentration of inhibitor (0.097656-50 μM) using a cell Titer-Blue cell viability assay. 1×10^4 cells (NHF cells)/well were plated in 96-well assay plates in culture medium. All cells were grown in DMEM, IMDM and RPMI-1640 supplemented with 10% FBS. After 24 hrs, test compounds and vehicle controls were added to appropriate wells so the final volume was 100p in each well. The cells were cultured for the desired test exposure period (72 hrs) at 37° C. and 5% CO2. The assay plates were removed from 37° C. incubator and 20 μl/well of CellTiter-Blue® Reagent was added. The plates were incubated using standard cell culture conditions for 1-4 hours and the plates were shaken for 10 seconds and record fluorescence at 560/590 nm.
Representative data for exemplary compounds against select normal primary human fibroblast (NHF) cell lines are presented in the following Table 7.

[17] = target: T1, BTK; experiment: BTK irreversible inhibition, enzyme kinetic analysis; type: biochemical
Method: One of ordinary skill in the art will recognize that this is consistent with the irreversible inhibition of BTK by compound I-A1.
One of ordinary skill in the art will recognize that this is consistent with the irreversible inhibition of BTK by compound I-A6.
One of ordinary skill in the art will recognize that this is consistent with the irreversible inhibition of BTK by compound 3A-2.
The shift of IC50 to a lower value after pre-incubation of the enzyme indicates to one of ordinary skill in the art that a significant portion of the enzyme was inhibited irreversibly during the incubation period.

[18] = Reactivity profiling with glutathione, LC/MS/MS; type: physicochemical; conditions: PBS buffer with 5 mM GSH, PBS pH 7.4, 25° C., 5 μM compound
Method: The experiment was started by placing 1 μL of 1 mM stocking solution of the test compound in DMSO in 199 μL of PBS buffer at pH 7.4 with 5 mM GSH to reach a final concentration of 5 μM. The final DMSO concentration was 0.5%. The solution was then incubated at 25° C. at 600 rpm, and was quenched with 600 μL solution of acetonitrile at 0, 30, 60 and 120 minutes. The quenched solution was vortexed for 10 minutes and centrifuged for 40 minutes at 3,220 g. An aliquot of 100 μL of the supernatant was diluted by 100 μL ultra-pure water, and the mixture was used for LC/MS/MS analysis. The data was processed and analyzed using Microsoft Excel.

[19] = target: T1, BTK; experiment: In vitro BTK inhibition (no preincubation); type: biochemical; conditions: Table 17
[20] = target: T1, BTK; experiment: Selected kinase inhibition, BTK (Table 6); type: biochemical

T1 sequence (Q06187 whole entry, species assumed): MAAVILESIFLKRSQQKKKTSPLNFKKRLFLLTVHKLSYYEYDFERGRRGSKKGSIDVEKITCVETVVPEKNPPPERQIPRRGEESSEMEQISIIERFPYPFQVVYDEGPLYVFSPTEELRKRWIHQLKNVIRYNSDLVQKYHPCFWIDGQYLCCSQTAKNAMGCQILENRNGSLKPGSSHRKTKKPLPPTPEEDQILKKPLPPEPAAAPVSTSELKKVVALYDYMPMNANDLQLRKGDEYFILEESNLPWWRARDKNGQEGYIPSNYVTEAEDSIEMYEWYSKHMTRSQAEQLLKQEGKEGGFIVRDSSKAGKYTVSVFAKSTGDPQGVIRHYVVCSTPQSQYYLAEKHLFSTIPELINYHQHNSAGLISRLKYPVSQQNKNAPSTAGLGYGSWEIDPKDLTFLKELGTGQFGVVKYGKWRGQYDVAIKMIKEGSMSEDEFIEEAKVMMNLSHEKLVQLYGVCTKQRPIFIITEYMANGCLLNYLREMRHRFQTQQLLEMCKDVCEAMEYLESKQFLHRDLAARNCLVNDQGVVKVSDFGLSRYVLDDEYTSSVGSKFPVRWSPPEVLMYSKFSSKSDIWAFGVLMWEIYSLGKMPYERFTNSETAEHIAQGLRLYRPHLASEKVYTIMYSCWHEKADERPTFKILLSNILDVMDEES

Compound | −Log Pe [10] | pIC50 [14] | IC50 [15] [µM] | inhibition profile by enzyme kinetic analysis ([17]; 0.1 nM BTK, 500 μM ATP) | pIC50 [19] | pIC50 [20] | half-life at 1 μM [1] [h] | recovery at 16 h, 10 μM [2] [%] | % Inhibition [4] | % D.O.P. [4] | IC50 [11] [µM] | pIC50 [16] | other results
COc1ccc(NS(=O)(=O)c2c(F)c(F)c(F)c(F)c2F)cc1F [Batabulin, batabulin, reference compound] |  |  |  |  |  |  | ≤ 0.167 | 67.4 | C (>20%) | B (< 85%) |  |  | −Log Pe [3]: 5.00
COc1ccc(NS(=O)(=O)c2c(F)c(F)c(F)c(F)c2OC2CC2)cc1F [Compound I-75, 2-cyclopropoxy-3,4,5,6-tetrafluoro-N-(3-fluoro-4-methoxyphenyl)benzenesulfonamide] |  |  |  |  |  |  | 1.67 to 16.7 | 94.9 | B (10-20%) | B (< 85%) |  |  | Cmax ([5]; Balb/C nude, mouse, ip, 40 mg/kg): < 20 ng/mL and < 50 µM; K (h^−1) ([5]; IP 40 mg/kg, Balb/C nude mice): A (≤5 h^−1); pIC50 [6]: 6.00 to 7.00; half-life at 25 μM [7]: 1.67 to 16.7 h; pIC50 [8]: ≥ 7.00; pIC50 [9]: 6.00 to 7.00; −Log Pe ([2]; PBS pH 7.4, 10 μM, 16 hours): 5.02
Nc1ncnc2c1c(-c1ccc(Oc3ccccc3)cc1)nn2[C@@H]1CCCN(S(=O)(=O)c2c(F)c(F)c(F)c(F)c2F)C1 [I-A1, (R)-1-(1-((perfluorophenyl)sulfonyl)piperidin-3-yl)-3-(4-phenoxyphenyl)-1H-pyrazolo[3,4-d]pyrimidin-4-amine] | B (>5 to ≤6) | 5.00 to 6.00 | 1.61 | time-dependent inhibition |  |  |  |  |  |  | 3.98 | 5.00 to 6.00 | inhibition at 0.296 µM ([12]; read-out: enzyme inhibited irreversibly): > 90%; remaining activity at 0.296 µM ([12]; relative to DMSO, read-out: residual activity of the enzyme): 7%; mass increase of BTK after incubation [13]: 595 Da

Further lines, with some results ahead:

−Log Pe [10] | pIC50 [14] | IC50 [15] [µM] | inhibition profile by enzyme kinetic analysis ([17]; 0.1 nM BTK, 500 μM ATP) | pIC50 [19] | pIC50 [20] | Compound | half-life at 1 μM [1] [h] | recovery at 16 h, 10 μM [2] [%] | % Inhibition [4] | % D.O.P. [4] | IC50 [11] [µM] | pIC50 [16] | other results
B (>5 to ≤6) |  |  | linear enzyme reaction rates | 6.00 to 7.00 | 6.00 to 7.00 | Nc1ncnc2c1c(-c1ccc(Oc3ccccc3)cc1)nn2[C@@H]1CCCN(S(=O)(=O)c2c(F)c(F)cc(F)c2F)C1 [I-A5, (R)-3-(4-phenoxyphenyl)-1-(1-((2,3,5,6-tetrafluorophenyl)sulfonyl)piperidin-3-yl)-1H-pyrazolo[3,4-d]pyrimidin-4-amine] |  |  |  |  |  | < 4.60 | half-life at 5 μM [18]: 167 to 500 h; pIC50 ([17]; fitting of linear reaction rates to a reversible binding model, read-out: IC50 (reversible binding model)): 6.48
C (>6 to ≤7) |  | 1 | time-dependent inhibition | 6.00 to 7.00 | 6.00 to 7.00 | Nc1ncnc2c1c(-c1ccc(Oc3ccccc3)cc1)nn2[C@@H]1CCCN(S(=O)(=O)c2c(F)c(F)c(F)c(F)c2OC2CC2)C1 [I-A6, (R)-1-(1-((2-cyclopropoxy-3,4,5,6-tetrafluorophenyl)sulfonyl)piperidin-3-yl)-3-(4-phenoxyphenyl)-1H-pyrazolo[3,4-d]pyrimidin-4-amine] |  |  |  |  | > 25 | < 4.60 | kinact ([17]; 0.1 nM BTK, 500 μM ATP, saturation kinetics): 0.000671 s⁻¹; pKi ([17]; 0.1 nM BTK, 500 μM ATP, saturation kinetics of irreversible inhibition): 7.15
 | 4.52 to 5.00 | 10.3 |  |  |  | C=CC(=O)N1CCC[C@@H](n2nc(-c3ccc(Oc4ccccc4)cc3)c3c(N)ncnc32)C1 [Ibrutinib, reference compound] |  |  |  |  | 26.8 | 4.60 to 5.00 | 
